Series [1] addresses T1, PRC2 containing wt EZH2 (Homo sapiens (Human), UniProt Q15910). As to the kind of experiment: EZH2 biochemical assay (IC50), 3H-SAM incorporation into biotinylated H3 peptide. Particulars: 30 pM PRC2 with wt EZH2, 3-5 h pre-incubation. The method, then: EZH2 biochemical assay (IC50): Compound potencies were assessed through incorporation of ^3H-SAM into a biotinylated H3 peptide. Specifically, 30 pM PRC2 containing wt EZH2 (pentameric complex prepared in-house) was pre-incubated with 450 nM SAM, 450 nM ^3H-SAM, 2 μM H3K27me3 activating peptide (H2N-RKQLATKAAR(Kme3)SAPATGGVKKP-amide) and compounds (as 10 point duplicate dose response titrations in DMSO, final assay 0.8% DMSO (v/v)) for 3-5 h in 50 mM Tris (pH 8.5), 1 mM DTT, 0.07 mM Brij-35, 0.1% BSA, and 0.8% DMSO in a total volume of 12.5 μl. Reaction was initiated with biotinylated H3 substrate peptide (H2N-RKQLATKAAR(Kmel)SAPATGGVKKP-NTPEGBiot) as a 2 μM stock in 12.5 μl of buffer and allowed to react at room temperature for 18-22 h. Quenching was accomplished by addition of 20 μl of STOP solution (50 mM Tris (pH 8.5), 200 mM EDTA, 2 mM SAH). 35 μl of the quenched solution was transferred to streptavidin coated FlashPlates (PerkinElmer), incubated 1-2 h, washed, and read in a TopCount Reader (PerkinElmer). IC50s were calculated in Genedata Screener using non-linear least square four parameter fits, where the four parameters were IC50, Hill slope, pre-transitional baseline (0% INH), and post-transitional baseline (100% INH).

The subject of another series is Karpas-422 cell lines. As to the kind of experiment: Karpas-422 viability assay (Cell Titer-Glo, Day 8). It counts as cell-based. Particulars: Homo sapiens, KARPAS-422, 192 h, Cell Titer-Glo on Day 8. The method, then: Karpas-422 cell lines were obtained from DSMZ (Braunschweig, Germany) and were grown in RPMI-1640 media. All media contained 10% fetal bovine serum (FBS) and 1% penicillin/streptomycin (Invitrogen). 20K cells per well were plated onto 96 well compound coated plates. Cells were split and seeded at original plating density (based on the DMSO well counts) every 4 days into plates containing fresh EZH2 inhibitors. Relative cell numbers were assessed by Cell Titer-Glo luminescent cell viability assay (Promega) on Day 8. GraphPad Prism 5 was used for curve fitting and GI50 values were reported.

Series [2] concerns the target T1, PRC2 containing wt EZH2. In words: EZH2 residence time assay (100-fold dilution of enzyme-inhibitor complex). It counts as biochemical. Particulars: recovery of enzyme activity after 100-fold dilution; read-out: EZH2 residence time (converted). How it is done: EZH2 residence time assay: Compound residence times were assessed by monitoring the recovery of enzyme activity following a 100-fold dilution of pre-formed enzyme-inhibitor complex (dilution reaction), and comparing it to the activity of an undiluted control with the same final concentrations of all reagents (control reaction). Enzyme activity was measured by incorporation of ^3H-SAM into a biotinylated H3 peptide. For the dilution reaction, 20 nM PRC2 containing wt EZH2 (pentameric complex prepared in-house) was pre-incubated with 1 μM activating peptide (H2N-RKQLATKAAR(Kme3)SAPATGGVKKP-amide) and compound at 600 times its Ki for 2 h in 40 μL of buffer (50 mM Tris pH 8.5, 4 mM DTT, 1 mM MgCl2, 0.07 mM Brij-35, and 0.1 mg/mL BSA), then diluted 100-fold and the reaction initiated by transferring 1.4 μL to a 138.6 μL volume of buffer containing 1 μM activating peptide, 5.05 μM substrate peptide (H2N-[…]-NTPEGbiot), 1.01 μM SAM, and 1.01 μM ^3H-SAM. […] Reactions were quenched at various time points spanning up to 10 hours, by transferring 8μL aliquots from the reaction vessel to a plate containing 8μL per well of STOP solution (50 mM Tris pH 8.5, 200 mM EDTA, 2 mM SAH). After the last time point, 12 μL of the quenched solutions were transferred to a streptavidin coated FlashPlate (PerkinElmer) containing 40 μL per well of STOP solution, incubated 1-8 h, washed, and read in a TopCount plate reader (PerkinElmer).
A custom script was used to fit control reaction progress data to a straight line and dilution reaction progress data:
[formula] Where y is the product formed, t is the reaction time, vi is the initial velocity, vs is the steady state velocity, and kobs is the rate constant for the transition from the initial velocity phase of the curve to the steady state velocity phase of the curve. In fitting the dilution reaction progress data, vs was constrained to the slope of the line fitted to the control reaction progress data. The fitted value of kobs was then transformed into residence time:
[formula] Where τ is residence time, Ki is the inhibition constant, [EI] is the calculated equilibrium concentration of enzyme-inhibitor complex, [E] is the calculated equilibrium concentration of free enzyme, and [I] is the calculated equilibrium concentration of free inhibitor.

Series [3] is described as follows: Cellular permeability in MDCK assay. Particulars: dog, pH 7.4, MDCK II, with P-gp inhibitor GF120918 10 μM; for efflux ratio at 2.5 h, 2 μM: Papp(BA)/Papp(AB). It counts as in vitro ADME. The method, then:
Cell culture: MDCK II cells (obtained from Piet Borst at the Netherlands Cancer Institute) were seeded onto […] (PET) in 96-well BD insert systems at 2.5×10^5 cells/mL until to 4-7 days for confluent cell monolayer formation.
Experimental procedure: Test and reference compounds (nadolol, metoprolol and digoxin) were diluted with transport buffer (HBSS with 10mM Hepes, pH7.4) from stock solution to a concentration of 2 μM (<1% DMSO) and applied to the apical (A) or basolateral (B) side of the cell monolayer. Permeation of the test compounds from A to B direction or B to A direction was determined in duplicate with P-gp inhibitor (GF120918, 10 μM). Digoxin was tested at 10 μM from A to B direction or B to A direction with/without P-gp inhibitor (GF120918, 10 μM) as well, while nadolol and metoprolol were tested at 2 μM in A to B direction without P-gp inhibitor (GF120918, 10 μM) in duplicate. The plate was incubated for 2.5 hours in CO2 incubator at 37±1° C., with 5% CO2 at saturated humidity without shaking. In addition, the efflux ratio of each compound was also determined. Test and reference compounds were quantified by LC/MS/MS analysis based on the peak area ratio of analyte/IS. After transport assay, Lucifer yellow rejection assay are applied to determine the cell monolayer integrity. Buffers are removed from both apical and basolateral chambers, followed by the addition of 75 μL of 100 μM lucifer yellow in transport buffer and 250 μL transport buffer in apical and basolateral chambers, respectively. The plate is incubated for 30 minutes at 37° C. with 5% CO2 and 95% relative humidity without shaking. After 30 minutes incubation, 20 μL of lucifer yellow samples are taken from the apical sides, followed by the addition of 60 μL of Transport Buffer. And then 80 μL of lucifer yellow samples are taken from the basolateral sides. The relative fluorescence unit (RFU) of lucifer yellow is measured at 425/528 nm (excitation/emission) with a Molecular Device M2e plate reader.
Data analysis: The apparent permeability coefficient Papp (cm/s) was calculated using the equation: Papp=(dCr/dt)×Vr/(A×C0) Where dCr/dt is the cumulative concentration of compound in the receiver chamber as a function of time (μM/s); Vr is the solution volume in the receiver chamber (0.075 mL on the apical side, 0.25 mL on the basolateral side); A is the surface area for the transport, i.e. 0.0804 cm2 for the area of the monolayer; C0 is the initial concentration in the donor chamber (μM).
The efflux ratio was calculated using the equation: Efflux Ratio=Papp(BA)/Papp(AB) Percent recovery was calculated using the equation: % Recovery=100×[(Vr×Cr)+(Vd×Cd)]/(Vd×C0) Where Vd is the volume in the donor chambers (0.075 mL on the apical side, 0.25 mL on the basolateral side); Cd and Cr are the final concentrations of transport compound in donor and receiver chambers, respectively.
Percent of lucifer yellow in basolateral well is calculated using the equation:
[formula] where RFUApical and RFUBasolateral are the relative fluorescence unit values of lucifer yellow in the apical and basolateral wells, respectively; VApical and VBasolateral are the volume of apical and basolateral wells (0.075 mL and 0.25 mL), respectively. Percent lucifer yellow should be less than 2.

The next series deals with H3K27me3 in Hela cells. In words: H3K27me3 Alpha Hela Assay (AlphaLISA). The format is cell-based. Particulars: Homo sapiens, HeLa, 72 h. How it is done:
H3K27me3 Alpha Hela Assay (AlphaLISA). Ten different doses of each test compound (in a series of 3-fold dilutions) were plated in duplicate 384-well tissue culture treated plates (Catalog #6007680; Perkin Elmer, Waltham, Mass.). Hela cells grown in culture were trypsinized and counted using a Countess® cell counter (Catalog #C10281; Life Technologies, Grand Island, N.Y.). Cell were diluted to 67,000 cells per mL in10% DMEM (Catalog #10569-010 Life Technologies, Grand Island, N.Y.) and 15 μL (1,000 cells) were plated into each well using the Biotek MicroFlo™ Select Dispenser (BioTek Instruments, Inc. Vermont, USA),) of the 384-well plate. Plates were incubated at 37° C./5% CO2 for 72 hrs. One of the duplicate plates was processed for HeLa assay and the other for viability. 5 μL of Cell-Histone Lysis buffer (1×) (Catalog #AL009F1 Perkin Elmer; Waltham, Mass.) per well was added to the plate processed for AlphaLISA and the plate was incubated at RT for 30 minutes on a plate shaker with low speed (Model# 4625-Q Thermo Scientific; Waltham, Mass.). Then, 10 μL per well Histone Extraction buffer (catalog #AL009F2; Perkin Elmer; Waltham, Mass.) was added and the plate further incubated at RT for 20 min on plate shaker with low speed. Next, 10 μL of 5× mix of anti-K27me3 acceptor beads plus Biotinylated anti-Histone H3 (C-ter) Antibody (diluted to 3 nM final) (Catalog #AL118 Perkin Elmer; Waltham, Mass.) was added in each well. Dilution of the acceptor beads and anti-Histone H3 was done in 1× Histone Detection buffer (Catalog #AL009F3 Perkin Elmer; Waltham, Mass.) which was produced by diluting the 10× stock provided. The plate was sealed with an aluminum plate sealer and incubated at 23° C. for 60 min. Next, 10 μL 5× solution of Streptavidin Donor beads were added (Catalog #6760002 Perkin Elmer; Waltham, Mass.) (20 μg/mL final in 1× Histone Detection Buffer), =plate was sealed with Aluminum plate sealer and incubated at 23° C. for 30 min. The plates were then read using an EnVision-Alpha Reader (model #2104 Perkin Elmer; Waltham, Mass.). […]

T1 sequence (Q15910 whole entry): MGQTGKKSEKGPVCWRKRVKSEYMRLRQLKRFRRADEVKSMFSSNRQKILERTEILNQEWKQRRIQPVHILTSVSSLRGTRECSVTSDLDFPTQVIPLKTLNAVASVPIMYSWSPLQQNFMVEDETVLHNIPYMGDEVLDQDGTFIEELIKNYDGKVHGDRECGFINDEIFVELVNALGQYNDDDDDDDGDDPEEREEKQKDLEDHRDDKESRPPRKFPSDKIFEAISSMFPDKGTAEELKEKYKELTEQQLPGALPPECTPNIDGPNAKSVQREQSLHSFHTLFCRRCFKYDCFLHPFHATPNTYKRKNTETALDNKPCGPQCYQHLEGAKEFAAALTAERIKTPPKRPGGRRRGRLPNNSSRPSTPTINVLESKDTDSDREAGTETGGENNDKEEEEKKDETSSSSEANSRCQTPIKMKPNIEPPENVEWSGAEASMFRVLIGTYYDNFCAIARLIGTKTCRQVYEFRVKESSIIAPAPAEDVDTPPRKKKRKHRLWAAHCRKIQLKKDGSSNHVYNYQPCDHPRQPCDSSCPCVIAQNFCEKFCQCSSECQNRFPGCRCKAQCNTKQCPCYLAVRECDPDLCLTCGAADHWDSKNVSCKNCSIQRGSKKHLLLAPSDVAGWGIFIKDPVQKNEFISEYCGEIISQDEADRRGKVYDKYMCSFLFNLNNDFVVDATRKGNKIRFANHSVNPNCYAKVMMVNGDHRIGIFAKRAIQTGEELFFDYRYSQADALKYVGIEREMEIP
T1 sequence (O75530 whole entry partner): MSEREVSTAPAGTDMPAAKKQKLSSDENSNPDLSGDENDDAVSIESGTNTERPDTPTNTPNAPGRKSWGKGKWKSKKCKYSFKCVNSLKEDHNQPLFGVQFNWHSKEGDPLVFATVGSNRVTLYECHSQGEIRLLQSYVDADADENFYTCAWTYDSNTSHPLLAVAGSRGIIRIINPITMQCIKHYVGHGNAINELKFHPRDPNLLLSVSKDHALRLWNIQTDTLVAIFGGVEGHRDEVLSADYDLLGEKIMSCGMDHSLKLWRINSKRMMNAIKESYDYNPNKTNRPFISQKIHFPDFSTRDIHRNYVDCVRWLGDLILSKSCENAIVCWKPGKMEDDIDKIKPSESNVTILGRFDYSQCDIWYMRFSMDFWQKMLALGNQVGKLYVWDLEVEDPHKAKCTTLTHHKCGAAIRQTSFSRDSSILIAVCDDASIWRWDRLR
T1 sequence (Q15022 whole entry partner): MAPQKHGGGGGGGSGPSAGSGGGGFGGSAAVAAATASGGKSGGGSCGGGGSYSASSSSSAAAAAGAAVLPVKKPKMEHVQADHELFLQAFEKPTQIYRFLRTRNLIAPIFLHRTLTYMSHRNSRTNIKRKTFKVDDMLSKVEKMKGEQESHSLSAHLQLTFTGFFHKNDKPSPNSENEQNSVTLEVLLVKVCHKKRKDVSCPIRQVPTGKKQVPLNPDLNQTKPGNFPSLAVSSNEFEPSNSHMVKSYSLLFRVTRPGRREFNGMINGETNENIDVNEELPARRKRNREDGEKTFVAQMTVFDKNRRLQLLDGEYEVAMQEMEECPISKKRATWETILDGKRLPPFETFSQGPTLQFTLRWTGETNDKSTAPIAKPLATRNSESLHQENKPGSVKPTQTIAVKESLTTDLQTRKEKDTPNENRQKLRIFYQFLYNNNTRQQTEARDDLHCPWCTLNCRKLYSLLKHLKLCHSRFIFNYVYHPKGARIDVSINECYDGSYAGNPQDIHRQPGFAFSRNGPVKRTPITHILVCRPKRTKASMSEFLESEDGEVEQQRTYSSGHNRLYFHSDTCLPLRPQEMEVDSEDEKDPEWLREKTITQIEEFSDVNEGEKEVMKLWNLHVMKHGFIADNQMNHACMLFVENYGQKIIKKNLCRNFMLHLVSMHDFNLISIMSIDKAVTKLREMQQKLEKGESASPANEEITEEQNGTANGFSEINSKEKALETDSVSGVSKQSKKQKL
T1 sequence (Q09028 whole entry partner): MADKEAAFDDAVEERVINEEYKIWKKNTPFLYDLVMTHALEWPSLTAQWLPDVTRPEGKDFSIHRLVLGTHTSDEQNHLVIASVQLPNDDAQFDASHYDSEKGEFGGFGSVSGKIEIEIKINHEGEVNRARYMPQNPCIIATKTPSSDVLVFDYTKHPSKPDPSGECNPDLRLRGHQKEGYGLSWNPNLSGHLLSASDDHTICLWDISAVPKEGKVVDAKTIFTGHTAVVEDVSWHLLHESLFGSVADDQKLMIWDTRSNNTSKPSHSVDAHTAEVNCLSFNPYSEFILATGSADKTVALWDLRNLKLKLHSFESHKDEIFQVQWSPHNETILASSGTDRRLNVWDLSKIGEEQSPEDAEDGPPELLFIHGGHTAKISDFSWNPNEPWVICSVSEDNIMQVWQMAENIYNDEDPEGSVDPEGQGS
T1 sequence (Q6ZN18 whole entry partner): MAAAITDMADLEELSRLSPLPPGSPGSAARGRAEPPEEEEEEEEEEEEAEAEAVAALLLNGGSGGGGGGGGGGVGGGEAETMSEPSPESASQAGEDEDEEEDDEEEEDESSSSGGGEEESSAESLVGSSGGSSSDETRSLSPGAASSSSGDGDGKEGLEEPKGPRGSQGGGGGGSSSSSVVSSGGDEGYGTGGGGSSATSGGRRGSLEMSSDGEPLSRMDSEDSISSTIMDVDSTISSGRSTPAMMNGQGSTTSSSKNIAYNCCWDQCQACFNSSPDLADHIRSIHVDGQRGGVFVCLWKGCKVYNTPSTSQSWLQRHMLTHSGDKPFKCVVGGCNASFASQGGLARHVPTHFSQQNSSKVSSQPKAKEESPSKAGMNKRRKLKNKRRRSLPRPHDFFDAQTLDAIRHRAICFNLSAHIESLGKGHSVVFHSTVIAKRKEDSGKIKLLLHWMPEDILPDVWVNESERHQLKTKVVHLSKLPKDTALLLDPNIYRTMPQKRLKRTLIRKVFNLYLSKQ

`CSc1cc(C)[nH]c(=O)c1CNC(=O)c1cc(Cl)c2c(c1C)OC(C)(C1CCC(N3CC(F)(F)C3)CC1)O2` (single isomer, unassigned) [Example 7-Enantiomer 2] gave an IC50 against PRC2 containing wt EZH2 [1] of 0.12 nM. Besides, growth in the series with Karpas-422 cell lines was halved (GI50) at 12 nM. In addition, at PRC2 containing wt EZH2 [2], the residence time is 1980 min. In series [3], the Papp at 2.5 h, 2 μM came out at 12 ×10⁻⁶ cm/s and the efflux ratio at 2.5 h, 2 μM stood at 0.71.

`CSc1cc(Cl)[nH]c(=O)c1CNC(=O)c1cc(Cl)c2c(c1C)O[C@@](C)([C@H]1CC[C@H](N(C)C)CC1)O2` [Example 3, (R)-7-chloro-N-((6-chloro-4-(methylthio)-2-oxo-1,2-dihydropyridin-3-yl)methyl)-2-(trans-4-(dimethylamino)cyclohexyl)-2,4-dimethylbenzo[d][1,3]dioxole-5-carboxamide] showed an IC50 against PRC2 containing wt EZH2 [1] of 0.37 nM. Also, the EC50 in the series with H3K27me3 in Hela cells came to 2.4 nM. Halving of growth with Karpas-422 cell lines (GI50) required 29 nM. Besides, in series [3], the Papp at 2.5 h, 2 μM came to 3.7 ×10⁻⁶ cm/s and the efflux ratio at 2.5 h, 2 μM was determined as 1.2.

As to `CSc1cc(C)[nH]c(=O)c1CNC(=O)c1cc(Cl)c2c(c1C)O[C@@](C)([C@H]1CC[C@H](N(C)C)CC1)O2` [Example 4], inhibition on PRC2 containing wt EZH2 [1] was half-maximal at 0.038 nM (IC50). This compound also returned an EC50 with H3K27me3 in Hela cells of 0.51 nM. In addition, the GI50 in the series on Karpas-422 cell lines worked out at 4 nM. In series [3], the apparent permeability coefficient (Papp) at 2.5 h, 2 μM came out at 0.62 ×10⁻⁶ cm/s and the efflux ratio at 2.5 h, 2 μM came to 2.3.

In turn, `CSc1nc(C)[nH]c(=O)c1CNC(=O)c1cc(Cl)c2c(c1C)O[C@@](C)([C@H]1CC[C@H](N(C)C)CC1)O2` [Example 5] registered an IC50 against PRC2 containing wt EZH2 [1] of 0.054 nM. Moreover, the EC50 in the series with H3K27me3 in Hela cells was determined as 3.6 nM. Besides, the GI50 in the series on Karpas-422 cell lines is 22 nM. In addition, in series [3], the Papp at 2.5 h, 2 μM amounted to 1.1 ×10⁻⁶ cm/s and the efflux ratio at 2.5 h, 2 μM is 3.6.

(Values after patent US11274095B2, “Modulators of methyl modifying enzymes, compositions and uses thereof” (Constellation Pharmaceuticals, Inc., priority 2018, dated 2022).)
